Values quoted from earlier work, collected in US20070099863A1, “Compounds for the treatment of demyelinating and autoimmune diseases” (priority 2003, published 2007).
Where a name gives a salt, the structure may show the parent alone.

Columns and labels:
P2X4 = biological target: T1, P2X4 (Homo sapiens, UniProt Q99571); conditions: P2X4 subtype; read-out: IC50 in relation to P2X4; cited from earlier work
T1 sequence (Q99571 1-388): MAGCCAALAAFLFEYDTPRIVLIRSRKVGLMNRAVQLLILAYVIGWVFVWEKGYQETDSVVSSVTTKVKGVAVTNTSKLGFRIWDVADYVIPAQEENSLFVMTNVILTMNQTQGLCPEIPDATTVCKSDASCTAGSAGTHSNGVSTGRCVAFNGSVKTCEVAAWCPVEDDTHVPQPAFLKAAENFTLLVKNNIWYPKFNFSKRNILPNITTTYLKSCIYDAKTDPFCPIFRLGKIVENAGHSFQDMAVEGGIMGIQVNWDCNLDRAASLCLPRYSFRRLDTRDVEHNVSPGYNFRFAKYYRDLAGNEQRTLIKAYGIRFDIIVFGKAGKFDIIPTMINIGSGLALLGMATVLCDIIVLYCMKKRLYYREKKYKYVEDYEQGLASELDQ

P2X7 = biological target: T2, P2X7 (Homo sapiens, UniProt Q99572); conditions: P2X7 subtype; read-out: IC50 in relation to P2X7; cited from earlier work
T2 sequence (Q99572 1-595): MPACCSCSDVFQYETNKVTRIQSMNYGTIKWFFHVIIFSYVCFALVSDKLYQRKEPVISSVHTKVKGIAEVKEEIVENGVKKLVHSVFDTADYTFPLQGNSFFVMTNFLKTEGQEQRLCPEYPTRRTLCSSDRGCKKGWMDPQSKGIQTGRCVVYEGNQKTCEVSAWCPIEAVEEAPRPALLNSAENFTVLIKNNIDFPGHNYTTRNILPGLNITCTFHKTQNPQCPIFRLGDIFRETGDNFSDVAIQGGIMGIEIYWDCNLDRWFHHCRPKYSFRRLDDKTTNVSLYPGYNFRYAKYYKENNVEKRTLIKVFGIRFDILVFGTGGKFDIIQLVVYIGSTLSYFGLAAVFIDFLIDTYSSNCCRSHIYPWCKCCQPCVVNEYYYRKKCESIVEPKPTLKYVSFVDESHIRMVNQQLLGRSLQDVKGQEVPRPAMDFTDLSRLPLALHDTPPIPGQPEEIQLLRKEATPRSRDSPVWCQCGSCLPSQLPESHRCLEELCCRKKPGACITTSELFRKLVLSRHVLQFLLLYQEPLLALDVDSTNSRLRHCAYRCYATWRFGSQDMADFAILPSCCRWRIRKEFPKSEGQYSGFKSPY

P2X5 = P2X5 (Homo sapiens, UniProt Q93086); conditions: P2X5 subtype; read-out: IC50 in relation to P2X5; cited from earlier work
Chain of P2X5 (Q93086 whole entry, species assumed): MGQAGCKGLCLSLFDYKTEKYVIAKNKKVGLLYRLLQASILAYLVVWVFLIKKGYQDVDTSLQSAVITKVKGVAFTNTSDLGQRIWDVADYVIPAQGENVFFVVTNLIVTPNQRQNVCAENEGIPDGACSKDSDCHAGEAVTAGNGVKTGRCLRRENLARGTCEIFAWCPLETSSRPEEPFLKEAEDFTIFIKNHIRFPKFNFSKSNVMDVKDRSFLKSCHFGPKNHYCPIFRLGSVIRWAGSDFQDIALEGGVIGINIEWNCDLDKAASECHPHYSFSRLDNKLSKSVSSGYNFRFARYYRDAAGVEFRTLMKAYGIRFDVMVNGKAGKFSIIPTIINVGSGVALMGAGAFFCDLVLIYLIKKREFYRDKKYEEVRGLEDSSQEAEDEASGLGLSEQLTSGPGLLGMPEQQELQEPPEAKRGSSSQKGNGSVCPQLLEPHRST

SMILES	IC50 (P2X4) [µM]	IC50 (P2X7) [µM]	IC50 (P2X5) [µM]
CCOc1ccc(Nc2ccc(/C(=C3C=C/C(=[N+](/CC)Cc4cccc(S(=O)(=O)[O-])c4)C=C/3C)c3ccc(N(CC)Cc4cccc(S(=O)(=O)O)c4)cc3C)cc2)cc1 [BBG, Coomassie brilliant blue G]	> 10	0.01	–
Cc1ccc(C(=O)Nc2ccc(S(=O)(=O)O)c3cc(S(=O)(=O)O)cc(S(=O)(=O)O)c23)cc1NC(=O)c1cccc(NC(=O)Nc2cccc(C(=O)Nc3cc(C(=O)Nc4ccc(S(=O)(=O)O)c5cc(S(=O)(=O)O)cc(S(=O)(=O)O)c45)ccc3C)c2)c1 [Suramin, hexasodium salt of 8,8′-[carbonylbis[imino-3,1-phenylenecarbonylimino(4-methyl-3,1-phenylene)carbonylimino]]bisnaphthalene-1,3,5-trisulphonic acid]	178	–	4
